Numbering of substitutions follows the chain as printed. “And” between values parts separate entries of the source, which are not always exact repeats. Identical values can stand only once. “Also recorded” adds a separate entry of the source. Like-named read-outs stand apart in the source and are kept apart here.
Assays:
5-HT2A [1] = target: T1, 5-HT2A (Homo sapiens, UniProt P28223); settings: for Efficacy as %5HT 5-HT2A BRET Gq: Table 6, commercial ligands
human 5-HT1A [2] = target: T2, human 5-HT1A (Homo sapiens, UniProt P08908); experiment: 5-HT1A-mediated cAMP reduction assay (GloSensor, HEK293-T)
T2 sequence (P08908 1-422): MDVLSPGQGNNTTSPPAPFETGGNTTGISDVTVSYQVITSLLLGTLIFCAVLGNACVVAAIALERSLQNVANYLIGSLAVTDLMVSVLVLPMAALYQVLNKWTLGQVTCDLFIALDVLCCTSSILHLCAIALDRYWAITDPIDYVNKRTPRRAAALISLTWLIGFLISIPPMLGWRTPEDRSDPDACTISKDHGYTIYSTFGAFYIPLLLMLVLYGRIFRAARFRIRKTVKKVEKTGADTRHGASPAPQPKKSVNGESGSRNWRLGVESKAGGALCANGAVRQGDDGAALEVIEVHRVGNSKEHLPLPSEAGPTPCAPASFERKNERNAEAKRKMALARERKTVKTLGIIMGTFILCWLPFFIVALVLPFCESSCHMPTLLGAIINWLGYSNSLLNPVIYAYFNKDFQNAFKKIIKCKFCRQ

5-HT1A [3] = target: T3, 5-HT1A (Homo sapiens, UniProt P08908); experiment: BRET signaling assay: 5-HT1A-mediated activation of heterotrimeric Gi1 (TRUPATH, HEK293-T); settings: for EC50: EC50 (nM), Gi1 BRET, 5-HT1A WT
5-HT2A [4] = target: T1, 5-HT2A; experiment: cell-based; set-up: expressed in transfected cells; host or cells: HEK293-T; settings: for Emax: read-out: 5-HT2A (IP1) Emax (%5-HT)
5-HT2B = 5-HT2B (Homo sapiens, UniProt P41595); experiment: IP1 functional assay 5-HT2B; format: cell-based; settings: for Emax: read-out: 5-HT2B (IP1) Emax (%5-HT), Table 3
C57BL/6J mice = experiment: Social interaction test after chronic social defeat stress (CSDS); settings: one s.c. administration
5-HT2A [5] = target: T1, 5-HT2A; experiment: cell-based
human 5-HT1A [6] = target: T2, human 5-HT1A; experiment: cell-based
5-HT1A [7] = target: T3, 5-HT1A; experiment: cell-based
[8] = Microsomal stability, human liver microsomes; format: in vitro ADME; settings: versus the DMT analogs
Procedure: Microsomal incubations were carried out in 96-well plates in 5 aliquots of 30 μL each (one for each time point). Liver microsomal incubation medium comprised of phosphate buffer (100 mM, pH 7.4), MgCl2 (3.3 mM), NADPH (3 mM), glucose-6-phosphate (5.3 mM), glucose-6 phosphate dehydrogenase (0.67 units/ml) with 0.42 mg of liver microsomal protein per ml. In the control reactions the NADPH-cofactor system was substituted with phosphate buffer. Test compounds (2 μM, final solvent concentration 1.6%) were incubated with microsomes at 37° C., shaking at 100 rpm. Each reaction was performed in duplicates. Five time points over 90 minutes were analyzed. The reactions were stopped by adding 5 volumes of methanol containing internal standard to incubation aliquots, followed by protein sedimentation by centrifuging at 5500 rpm for 4 minutes. Supernatants were analyzed using the HPLC system coupled with tandem mass spectrometer. The elimination constant (kel), half-life (t1/2) and intrinsic clearance (Clint) were determined in plot of […] versus time, using linear regression analysis.

5-HT1A A365N = target: T4, 5-HT1A A365N (Homo sapiens, UniProt P08908, A365N); experiment: Gi1 BRET at mutant 5-HT1A A365N; format: cell-based; settings: 5-HT1A A365N^6.55
T4 construct: expressed in transfected cells; host or cells: HEK293-T
T4 sequence (P08908 1-422 A365N): T2 sequence (P08908 1-422) with A365N

5-HT2A V366N = target: T5, 5-HT2A V366N (Homo sapiens, UniProt P28223, V366N); experiment: Gq BRET at mutant 5-HT2A V366N; format: cell-based; settings: mutant vs wildtype 5-HT2A
T5 construct: expressed in transfected cells; host or cells: HEK293-T

[9] = Mouse plasma protein binding; format: in vitro ADME
[10] = Human plasma protein binding; format: in vitro ADME

Chain of 5-HT2B (P41595 whole entry, species assumed): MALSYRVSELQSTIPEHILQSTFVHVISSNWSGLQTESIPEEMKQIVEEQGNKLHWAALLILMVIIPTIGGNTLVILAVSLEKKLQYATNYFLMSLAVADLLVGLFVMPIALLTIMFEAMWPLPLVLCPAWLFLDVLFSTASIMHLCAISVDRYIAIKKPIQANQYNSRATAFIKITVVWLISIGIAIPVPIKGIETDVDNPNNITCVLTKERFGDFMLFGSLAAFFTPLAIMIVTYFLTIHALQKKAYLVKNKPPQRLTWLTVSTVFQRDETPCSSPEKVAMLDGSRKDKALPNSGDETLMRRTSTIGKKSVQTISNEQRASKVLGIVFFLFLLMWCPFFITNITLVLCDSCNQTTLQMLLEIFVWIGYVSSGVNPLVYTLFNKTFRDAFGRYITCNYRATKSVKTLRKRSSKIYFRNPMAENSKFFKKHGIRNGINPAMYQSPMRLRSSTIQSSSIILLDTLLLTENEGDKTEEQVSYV
T1 sequence (P28223 whole entry): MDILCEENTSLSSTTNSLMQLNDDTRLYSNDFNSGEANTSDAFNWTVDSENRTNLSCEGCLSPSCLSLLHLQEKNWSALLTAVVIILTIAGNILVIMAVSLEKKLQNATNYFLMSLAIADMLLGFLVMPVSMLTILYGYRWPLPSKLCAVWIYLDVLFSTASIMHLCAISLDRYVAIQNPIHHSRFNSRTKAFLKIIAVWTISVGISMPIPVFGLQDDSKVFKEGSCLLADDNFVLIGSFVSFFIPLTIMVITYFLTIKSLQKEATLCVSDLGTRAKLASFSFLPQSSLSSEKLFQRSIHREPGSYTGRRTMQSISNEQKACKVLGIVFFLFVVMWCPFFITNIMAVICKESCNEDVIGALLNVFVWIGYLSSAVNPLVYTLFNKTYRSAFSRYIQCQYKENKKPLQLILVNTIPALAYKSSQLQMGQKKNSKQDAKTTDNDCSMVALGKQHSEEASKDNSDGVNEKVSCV
T5 sequence (P28223 whole entry V366N): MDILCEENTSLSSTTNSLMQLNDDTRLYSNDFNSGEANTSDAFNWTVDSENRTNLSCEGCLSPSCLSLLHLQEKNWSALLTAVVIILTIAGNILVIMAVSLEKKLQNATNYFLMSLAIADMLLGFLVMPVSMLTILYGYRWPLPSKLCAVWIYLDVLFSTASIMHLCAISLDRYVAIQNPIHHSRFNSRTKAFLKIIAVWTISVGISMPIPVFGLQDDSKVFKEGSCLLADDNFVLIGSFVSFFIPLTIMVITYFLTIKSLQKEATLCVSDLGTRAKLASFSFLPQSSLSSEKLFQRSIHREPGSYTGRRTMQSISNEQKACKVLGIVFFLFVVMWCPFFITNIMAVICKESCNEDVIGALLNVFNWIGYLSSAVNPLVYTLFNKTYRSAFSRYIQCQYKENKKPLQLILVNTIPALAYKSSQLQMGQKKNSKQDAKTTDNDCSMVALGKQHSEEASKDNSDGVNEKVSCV

NCCc1c[nH]c2ccc(O)cc12 [Compound 5-HT, 5-hydroxytryptamine, reference compound]
Normalized (%5HT) Top Mean BRET Gq-2A (5-HT2A [1]; Table 2): 100.0 %5HT
Efficacy as %5HT 5-HT2A BRET Gq (5-HT2A [1]): 100.0 %5HT
Normalized (%5HT) Top Mean Gio(cAMP) 1A (human 5-HT1A [2]; Table 2): 100.0 %5HT
Efficacy as %5HT 5-HT1A cAMP (human 5-HT1A [2]; Table 6, commercial ligands): 100.0 %5HT
Normalized (%5HT) Top Mean BRET Gi1-1A (5-HT1A [3]; Table 2): 100.0 %5HT
Efficacy as %5HT 5-HT1A BRET Gi1 (5-HT1A [3]; Table 6, commercial ligands): 100.0 %5HT

CCCN(C)CCc1c[nH]c2ccc(OC)cc12 [Compound 10, 5-MeO-MPT]
EC50 (5-HT2A [4]): 79 nM
Emax (5-HT2A [4]): 89%
EC50 (5-HT2B): 100 nM
Emax (5-HT2B): 61%

CCCN(CCC)CCc1c[nH]c2ccc(OC)cc12 [Compound 13, 5-methoxy-N,N-dipropyl-tryptamine]
EC50 (5-HT2A [4]): 82 nM
Emax (5-HT2A [4]): 94%
EC50 (5-HT2B): 76 nM
Emax (5-HT2B): 108%

CCN(C)CCc1c[nH]c2ccc(OC)c(F)c12 [Compound 26, N-ethyl-2-(4-fluoro-5-methoxy-1H-indol-3-yl)-N-methylethan-1-amine]
EC50 (5-HT2A [4]): 230 nM
Emax (5-HT2A [4]): 90%
general locomotion at the social interaction test (C57BL/6J mice; mice): no effects on general locomotion
corner time (anxiety-like behavior) (C57BL/6J mice; stressed mice): rescued
social interaction deficit induced by chronic social defeat stress (C57BL/6J mice; stressed mice, test 24 hr post drug, listed as 4-F, 5-MeO-MET): rescued; also recorded: rescuing the social interaction deficit
EC50 (5-HT2A [5]): 99.3 nM
EC50 (human 5-HT1A [6]): 0.316 nM
EC50 (5-HT1A [7]): 1.77 nM
EC50 (5-HT2B): 66 nM
Emax (5-HT2B): 39%
microsomal stability in human microsomes [8]: greater stability in human microsomes versus the DMT analogs

CCCN(CC)CCc1c[nH]c2ccc(OC)c(F)c12 [Compound 29, N-ethyl-(2-(4-fluoro-5-methoxy-1H-indol-3-yl)ethyl)propan-1-amine]
EC50 (5-HT2A [5]): 155 nM
EC50 (human 5-HT1A [6]): 0.151 nM
EC50 (5-HT1A [7]): 0.95 nM
microsomal stability in human microsomes [8]: greater stability in human microsomes versus the DMT analogs

C=CCN(C)CCc1c[nH]c2ccc(OC)c(F)c12 [Compound 34, N-(2-(4-fluoro-5-methoxy-1H-indol-3-yl)ethyl)-N-methylprop-2-en-1-amine]
EC50 (5-HT2A [5]): 156 nM
EC50 (human 5-HT1A [6]): 2.57 nM
EC50 (5-HT1A [7]): 8.41 nM
microsomal stability in human microsomes [8]: greater stability in human microsomes versus the DMT analogs

CN(C)CCc1c[nH]c2ccc(O)c(F)c12 [Compound 40, 3-(2-(dimethylamino)ethyl)-4-fluoro-1H-indol-5-ol]
EC50 (5-HT1A A365N; EC50 (nM), Gi1 BRET): 5.68 nM
EC50 (5-HT2A [5]): 7.46 nM
EC50 (5-HT2A [5]; EC50 (nM), Gq BRET, 5-HT2A WT): 7.46 nM
EC50 (human 5-HT1A [6]): 0.251 nM
EC50 (5-HT1A [7]): 1.13 nM
EC50 (5-HT1A [3]): 1.13 nM

CSc1ccc2[nH]cc(CCN(C)C)c2c1 [Compound 67, N,N-dimethyl-2-(5-(methylthio)-1H-indol-3-yl)ethan-1-amine]
EC50 (5-HT1A A365N; EC50 (nM), Gi1 BRET): 30.5 nM
EC50 (5-HT1A A365N; pEC50, Gi1 BRET): 30.2 nM
EC50 (5-HT2A [5]): 30.1 nM
EC50 (5-HT2A [5]; EC50 (nM), Gq BRET, 5-HT2A WT): 30.1 nM
EC50 (human 5-HT1A [6]): 2.01 nM
EC50 (5-HT1A [7]): 11.7 nM
EC50 (5-HT1A [3]): 11.7 nM

CSc1ccc2[nH]cc(CCN3CCCC3)c2c1 [Compound 69, 5-(methylthio)-3-(2-(pyrrolidin-1-yl)ethyl)-1H-indole]
EC50 (5-HT1A A365N; EC50 (nM), Gi1 BRET): 5.08 nM
EC50 (5-HT2A [5]): 175 nM
EC50 (5-HT2A [5]; EC50 (nM), Gq BRET, 5-HT2A WT): 175 nM
EC50 (human 5-HT1A [6]): 0.51 nM and 0.501 nM
EC50 (5-HT1A [7]): 1.05 nM
EC50 (5-HT1A [3]): 1.05 nM

CCN(CC)C(=O)[C@@H]1C=C2c3cccc4[nH]cc(c34)C[C@H]2N(C)C1 [LSD, reference compound]
Efficacy as %5HT 5-HT2A BRET Gq (5-HT2A [1]): 82.4 %5HT
effect of 5-HT2A V366N mutation on potency and efficacy (5-HT2A V366N): increase in signaling efficacy

CC(=O)CC(c1ccccc1)c1c(O)c2ccccc2oc1=O (stereo not drawn) [Warfarin]
% Recovery [9]: 90.9%
% Unbound [9]: 6.4%
fu [9]: 0.064
% Compound remaining at 4 h ([9]; 4 h): 103.3%
% Recovery [10]: 108.1%
% Compound remaining at 4 h ([10]; 4 h): 108.8%

Source: patent US20260034119A1, “5-METHOXY-N,N-[…][…], THEIR […], AND METHODS FOR TREATMENT OF NEUROLOGICAL, […], AND SUBSTANCE USE DISORDERS” (priority 2023, published 2026)
